In US20130245355A1, “3-HETARYL-SUBSTITUTED PYRROLO[2,3 B]PYRIDINE DERIVATIVES AS PDK1 INHIBITORS” (MERCK PATENT GMBH, priority 2010, published 2013):

What was measured:
[1] = target: T1, PDK1 (Homo sapiens, UniProt O15530); assay: Test for the inhibition of PDK1 (flashplate, 33P-ATP); details: His6-PDK1 (1-50) 3.4 nM, 4 μM ATP, 30° C., 60 min; read-out: IC50 [PDK1] biochemical
T1 construct: His6 (N)
T1 sequence (O15530 51-556 limits assumed): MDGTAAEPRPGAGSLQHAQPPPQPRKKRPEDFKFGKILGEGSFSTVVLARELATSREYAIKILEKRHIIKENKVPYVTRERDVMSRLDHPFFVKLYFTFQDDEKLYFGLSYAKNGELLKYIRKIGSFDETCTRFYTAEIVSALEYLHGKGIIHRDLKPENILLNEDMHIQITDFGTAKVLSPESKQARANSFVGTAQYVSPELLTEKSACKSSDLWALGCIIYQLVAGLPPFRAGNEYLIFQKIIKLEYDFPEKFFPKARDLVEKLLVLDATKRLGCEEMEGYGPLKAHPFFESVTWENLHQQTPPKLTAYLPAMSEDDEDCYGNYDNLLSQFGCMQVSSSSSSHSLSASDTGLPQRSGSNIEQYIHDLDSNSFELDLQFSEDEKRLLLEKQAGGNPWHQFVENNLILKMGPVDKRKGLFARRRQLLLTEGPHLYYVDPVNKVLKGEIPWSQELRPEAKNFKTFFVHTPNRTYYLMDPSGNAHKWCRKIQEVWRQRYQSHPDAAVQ
Description: The experimental batches are carried out in a flashplate system with 384 wells/microtitration plate.
In each case, the PDK1 sample His6-PDK1 (1-50) (3.4 nM), the PDK1 substrate biotin-bA-bA-[…] (400 nM), 4 μM ATP (with 0.2μ Ci of ^33P-ATP/well) and the test substance in 50 μl of conventional experimental solution per well are incubated at 30° C. for 60 min. The test substances are employed in corresponding concentrations (if desired in a dilution series). The control is carried out without test substance. The reaction is stopped using standard methods and washed. The activity of the kinase is measured via the incorporated radioactivity in top count. In order to determine the non-specific kinase reaction (blank value), the experimental batches are carried out in the presence of 100 nM staurosporin.
The radioactivity (decompositions per minute) of the blank value (no use of test substance in the presence of staurosporin) is subtracted from all other radioactivity values. The controls (kinase activity without test substance) are set equal to 100 percent and all other radioactivity values (after subtracting the blank value) are expressed set in relation thereto (for example in % of the control).
IC50 values (50% inhibition) are determined with the aid of statistics programmes, such as, for example, RS1.

[2] = target: T2, PDK1 (Homo sapiens, UniProt O15530); assay: Cellular testing of PDK1 kinase inhibitors in PC3 cells (Luminex, phospho-T308-PKB); format: cell-based; details: 30 min, serum-free
T2 construct: endogenous in cells; host or cells: PC3 cells
T2 sequence (O15530 1-556): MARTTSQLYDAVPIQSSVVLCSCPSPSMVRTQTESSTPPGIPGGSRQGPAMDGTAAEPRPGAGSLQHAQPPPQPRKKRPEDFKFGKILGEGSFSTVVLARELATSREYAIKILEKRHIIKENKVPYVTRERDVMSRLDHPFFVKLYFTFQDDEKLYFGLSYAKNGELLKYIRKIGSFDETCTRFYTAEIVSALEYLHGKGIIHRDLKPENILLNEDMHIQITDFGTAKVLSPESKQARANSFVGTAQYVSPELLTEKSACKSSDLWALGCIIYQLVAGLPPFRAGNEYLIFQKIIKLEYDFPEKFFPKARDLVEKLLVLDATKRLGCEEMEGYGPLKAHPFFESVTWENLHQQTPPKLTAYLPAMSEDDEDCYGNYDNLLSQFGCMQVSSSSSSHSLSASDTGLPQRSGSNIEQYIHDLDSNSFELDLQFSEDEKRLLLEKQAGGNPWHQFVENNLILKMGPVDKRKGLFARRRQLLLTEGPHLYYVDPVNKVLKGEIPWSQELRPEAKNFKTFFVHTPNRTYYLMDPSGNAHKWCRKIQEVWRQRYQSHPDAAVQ
Description: Method for the Cellular Testing of PDK1 Kinase Inhibitors in PC3 Cells.
The cellular assay for the determination of the PDK1 kinase activity is carried out as a Luminex assay in the 96-well format. PC3 cells are sown at 20,000 cells per well in 100 μl of medium (45% of […]/45% of Ham's F12/10% of FCS) and incubated on the following day for 30 min with a serial dilution of the test substance (7 concentrations) under serum-free conditions. The cells are subsequently lysed using 90 μl of lysis buffer (20 mM tris/HCl pH 8.0, 150 mM NaCl, 1% of NP40, 10% of glycerol, 1% of phosphatase inhibitor I, 1% of phosphatase inhibitor II, 0.1% of protease inhibitor cocktail III, 0.01% of benzonase) per well, and the lysates are separated off from insoluble cell constituents by means of centrifugation through a 96-well filter plate (0.65 μm). The lysates are incubated overnight at 4° C. with shaking with Luminex beads to which an anti-total PKB antibody is coupled. The detection is carried out on the following day by addition of a phospho-T308-PKB antibody and a species-specific […] secondary antibody. The detection of phospho T308-PKB is carried out by measurement in a Luminex100 instrument by determination of 100 events per cavity in a measurement time of 60 sec. As pharmacological blank, the signals obtained from cells which have been treated with 10 μM staurosporin are subtracted from all other batches. The control value used for maximum phosphorylation of PKB on T308 are the signals from cells which have only been treated with the solvent (0.3% of DMSO). The values of the batches treated with test substance are calculated therefrom as percentage of control, and IC50 values are determined by means of RS 1.

Cn1cc(-c2cnc3[nH]cc(-c4noc(Cc5ccccc5)n4)c3c2)cn1 [A26]
IC50 [1]: 1000 to 10000 nM

Cn1cc(-c2cnc3[nH]cc(-c4nnc(C(O)c5ccc(C(=O)NC6CCCCC6)cc5Cl)o4)c3c2)cn1 (centres unmarked) [A129, 3-chloro-N-cyclohexyl-4-(hydroxy-{5-[5-(1-methyl-1H-pyrazol-4-yl)-1H-pyrrolo[2,3-b]pyridin-3-yl]-1,3,4-oxadiazol-2-yl}methyl)benzamide]
IC50 [2]: 1000 to 10000 nM

Cn1cc(-c2cnc3[nH]cc(-c4n[nH]c(C(C)(O)c5cccc(F)c5)n4)c3c2)cn1 (centres unmarked) [A44]
IC50 [1]: 0.5 to 1000 nM | IC50 [2]: 1000 to 10000 nM

Cn1cc(-c2cnc3[nH]cc(-c4cc([C@](C)(O)c5ccccc5F)on4)c3c2)cn1 (single isomer, unassigned) [A56]
IC50 [1]: 0.5 to 1000 nM

Cn1cc(-c2cnc3[nH]cc(-c4cc([C@](C)(O)c5ccccc5)on4)c3c2)cn1 (single isomer, unassigned) [A35]
IC50 [1]: 0.5 to 1000 nM | IC50 [2]: 1000 to 10000 nM

CC[C@](O)(c1cc(-c2c[nH]c3ncc(-c4cnn(C)c4)cc23)no1)c1ccccc1F (single isomer, unassigned) [A92]
IC50 [1]: 0.5 to 1000 nM

Cn1cc(-c2cnc3[nH]cc(-c4nnc(C(O)c5cccc(F)c5F)o4)c3c2)cn1 (centres unmarked) [A46]
IC50 [1]: 0.5 to 1000 nM | IC50 [2]: 0.5 to 1000 nM

Cn1cc(-c2cnc3[nH]cc(-c4cc(C(C)(O)c5ccccc5Cl)[nH]n4)c3c2)cn1 (centres unmarked) [A88]
IC50 [1]: 0.5 to 1000 nM | IC50 [2]: 1000 to 10000 nM

Cn1cc(-c2cnc3[nH]cc(-c4nnc(C5(c6ccnc(Cl)c6)CC5)o4)c3c2)cn1 [A91]
IC50 [1]: 1000 to 10000 nM | IC50 [2]: 1000 to 10000 nM

Cn1cc(-c2cnc3[nH]cc(-c4n[nH]c(Cc5ccccc5F)n4)c3c2)cn1 [A15]
IC50 [1]: 0.5 to 1000 nM | IC50 [2]: 1000 to 10000 nM

Cn1cc(-c2cnc3[nH]cc(-c4cc(C(C)(O)c5cccc(F)c5)on4)c3c2)cn1 (centres unmarked) [A36]
IC50 [1]: 0.5 to 1000 nM | IC50 [2]: 0.5 to 1000 nM

Cn1cc(-c2cnc3[nH]cc(-c4nc(C(C)(O)c5ccccc5Cl)no4)c3c2)cn1 (centres unmarked) [A79]
IC50 [1]: 1000 to 10000 nM | IC50 [2]: 0.5 to 1000 nM

Cn1cc(-c2cnc3[nH]cc(-c4cc(C(C)(O)c5ccccc5)n(C)n4)c3c2)cn1 (centres unmarked) [A76]
IC50 [1]: 1000 to 10000 nM

CCN(CC)Cc1cc(-c2c[nH]c3ncc(-c4cnn(C)c4)cc23)no1 [A104]
IC50 [1]: 0.5 to 1000 nM

Cn1cc(-c2cnc3[nH]cc(-c4nnc(C5(c6cccnc6)CC5)o4)c3c2)cn1 [A124, 5-(1-methyl-1H-pyrazol-4-yl)-3-[5-(1-pyridin-3-ylcyclopropyl)-1,3,4-oxadiazol-2-yl]-1H-pyrrolo[2,3-b]pyridine]
IC50 [1]: 0.5 to 1000 nM | IC50 [2]: 1000 to 10000 nM

Cn1cc(-c2cnc3[nH]cc(-c4nnc([C@@H](N)c5ccccc5)o4)c3c2)cn1 [A109, C—((S)—C-{5-[5-(1-methyl-1H-pyrazol-4-yl)-1H-pyrrolo[2,3-b]-pyridin-3-yl]-1,3,4-oxadiazol-2-yl}-C-phenyl)methylamine]
IC50 [1]: 0.5 to 1000 nM

Cn1cc(-c2cnc3[nH]cc(-c4cc(C(O)(c5ccccc5)C5CCOCC5)on4)c3c2)cn1 (centres unmarked) [A103]
IC50 [1]: 0.5 to 1000 nM

Cn1cc(-c2cnc3[nH]cc(-c4csc(Cc5cccc(F)c5)n4)c3c2)cn1 [A7]
IC50 [2]: 1000 to 10000 nM

CCOC(c1ccccc1)c1cc(-c2c[nH]c3ncc(-c4cnn(C)c4)cc23)n[nH]1 (centres unmarked) [A90]
IC50 [1]: 0.5 to 1000 nM

Cn1cc(-c2cnc3[nH]cc(-c4noc(Cc5cccc(F)c5)n4)c3c2)cn1 [A8, 3-[5-(3-fluorobenzyl)-1,2,4-oxadiazol-3-yl]-5-(1-methyl-1H-pyrazol-4-yl)-1H-pyrrolo[2,3-b]pyridine]
IC50 [1]: 1000 to 10000 nM

Cn1cc(-c2cnc3[nH]cc(-c4nnc(C(N)c5cccnc5)o4)c3c2)cn1 (centres unmarked) [A115]
IC50 [1]: 1000 to 10000 nM

Cn1cc(-c2cnc3[nH]cc(-c4nnc([C@H](N)c5ccccc5)o4)c3c2)cn1 [A108, C—((R)—C-{5-[5-(1-methyl-1H-pyrazol-4-yl)-1H-pyrrolo[2,3-b]pyridin-3-yl]-1,3,4-oxadiazol-2-yl}-C-phenyl)methylamine]
IC50 [1]: 0.5 to 1000 nM

Cn1cc(-c2cnc3[nH]cc(-c4noc(Cc5ccccc5F)n4)c3c2)cn1 [A13]
IC50 [1]: 1000 to 10000 nM

Cn1cc(-c2cnc3[nH]cc(-c4csc(Cc5ccccc5)n4)c3c2)cn1 [A2, 3-(2-benzyl-thiazol-4-yl)-5-(1-methyl-1H-pyrazol-4-yl)-1H-pyrrolo[2,3-b]pyridine]
IC50 [2]: 1000 to 10000 nM

Cn1cc(-c2cnc3[nH]cc(-c4nnc([C@H](O)c5ccccc5Cl)o4)c3c2)cn1 (single isomer, unassigned) [A131]
IC50 [1]: 0.5 to 1000 nM

Cn1cc(-c2cnc3[nH]cc(-c4noc(C(=O)c5ccccc5)n4)c3c2)cn1 [A27]
IC50 [2]: 1000 to 10000 nM

COC(C)(c1ccccc1)c1cc(-c2c[nH]c3ncc(-c4cnn(C)c4)cc23)nn1C (centres unmarked) [A73]
IC50 [1]: 1000 to 10000 nM

Cn1cc(-c2cnc3[nH]cc(-c4cc(C(C)(O)c5ccnnc5)on4)c3c2)cn1 (centres unmarked) [A98, 1-{3-[5-(1-methyl-1H-pyrazol-4-yl)-1H-pyrrolo[2,3-b]pyridin-3-yl]isoxazol-5-yl}-1-pyridazin-4-ylethanol]
IC50 [1]: 0.5 to 1000 nM

Cn1cc(-c2cnc3[nH]cc(-c4cc(C(O)c5ccccc5)nn4CCO)c3c2)cn1 (centres unmarked) [A106]
IC50 [1]: 1000 to 10000 nM

Cn1cc(-c2cnc3[nH]cc(-c4cc(C(O)(c5ccccc5)C5CCOCC5)no4)c3c2)cn1 (centres unmarked) [A102]
IC50 [1]: 0.5 to 1000 nM

Cn1cc(-c2cnc3[nH]cc(-c4n[nH]c(C(O)c5ccccc5)n4)c3c2)cn1 (centres unmarked) [A30]
IC50 [1]: 0.5 to 1000 nM

Cc1sc(Cc2ccccc2)nc1-c1c[nH]c2ncc(-c3cnn(C)c3)cc12 [A3]
IC50 [2]: 1000 to 10000 nM

Cn1cc(-c2cnc3[nH]cc(-c4nnc(C(C)(C)c5ccnnc5)o4)c3c2)cn1 [A121, 5-(1-methyl-1H-pyrazol-4-yl)-3-[5-(1-methyl-1-pyridazin-4-ylethyl)-1,3,4-oxadiazol-2-yl]-1H-pyrrolo[2,3-b]pyridine]
IC50 [1]: 1000 to 10000 nM

Cn1cc(-c2cnc3[nH]cc(-c4cc(C(O)(c5ccccc5)C5CCOCC5)[nH]n4)c3c2)cn1 (centres unmarked) [A101, {5-[5-(1-methyl-1H-pyrazol-4-yl)-1H-pyrrolo[2,3-b]pyridin-3-yl]-2H-pyrazol-3-yl}phenyl(tetrahydropyran-4-yl)methanol]
IC50 [1]: 0.5 to 1000 nM

Cn1cc(-c2cnc3[nH]cc(-c4nnc(C5(c6ccnc(O)c6)CC5)o4)c3c2)cn1 [A111]
IC50 [1]: 0.5 to 1000 nM

CC[C@@](O)(c1cc(-c2c[nH]c3ncc(-c4cnn(C)c4)cc23)no1)c1ccccc1F (single isomer, unassigned) [A93]
IC50 [1]: 0.5 to 1000 nM

CCC(N)(c1ccccc1)c1nnc(-c2c[nH]c3ncc(-c4cnn(C)c4)cc23)o1 (centres unmarked) [A114]
IC50 [1]: 1000 to 10000 nM

Cn1cc(-c2cnc3[nH]cc(-c4nc(C5(c6ccccc6Cl)CC5)no4)c3c2)cn1 [A119]
IC50 [2]: 1000 to 10000 nM
